These are literature values, as cited in article PMC9869109 (Angewandte Chemie (International ed. in English), 2022).

The data set has as its system cell nuclei. The settings on record: previous result ref 12.

As to NBD-llllpY, the nuclear-targeting ability entry is recorded as “weak nuclear-targeting ability”.
